Experimental data: patent US20210269434A1, “TRICYCLIC COMPOUNDS AS INHIBITORS OF KRAS” (Incyte Corporation, priority 2020, published 2021)

Biological target: KRAS G12D (Homo sapiens, UniProt P01116, G12D)
Assay: GDP-GTP exchange assay (KRAS_G12D exchange)
Format: biochemical
Conditions: bodipy loaded KRAS G12D 2.5 nM; 4 hours incubation after GppNHp-SOS1; read-out: G12D_exchange
Protocol: Example A. GDP-GTP Exchange Assay
The inhibitor potency of the exemplified compounds was determined in a fluorescence based guanine nucleotide exchange assay, which measures the exchange of bodipy-GDP (fluorescently labeled GDP) for GppNHp (Non-hydrolyzable GTP analog) to generate the active state of KRAS in the presence of SOS1 (guanine nucleotide exchange factor). Inhibitors were serially diluted in DMSO and a volume of 0.1 μL was transferred to the wells of a black low volume 384-well plate. 5 μL/well volume of bodipy-loaded KRAS G12C diluted to 5 nM in assay buffer (25 mM Hepes pH 7.5, 50 mM NaCl, 10 mM MgCl2 and 0.01% Brij-35) was added to the plate and pre-incubated with inhibitor for 2 hours at ambient temperature. Appropriate controls (enzyme with no inhibitor or with a G12C inhibitor (AMG-510)) were included on the plate. The exchange was initiated by the addition of a 5 μL/well volume containing 1 mM GppNHp and 300 nM SOS1 in assay buffer. The 10 μL/well reaction concentration of the bodipy-loaded KRAS G12C, GppNHp, and SOS1 were 2.5 nM, 500 uM, and 150 nM, respectively. The reaction plates were incubated at ambient temperature for 2 hours, a time estimated for complete GDP-GTP exchange in the absence of inhibitor. For the KRAS G12D and G12V mutants, similar guanine nucleotide exchange assays were used with 2.5 nM as final concentration for the bodipy loaded KRAS proteins and with 4 hours and 3 hours incubation after adding GppNHp-SOS1 mixture for G12D and G12V respectively. A cyclic peptide described to selectively bind G12D mutant (Sakamoto et al., BBRC 484.3 (2017), 605-611) or internal compounds with confirmed binding were used as positive controls in the assay plates. Fluorescence intensities were measured on a PheraStar plate reader instrument (BMG Labtech) with excitation at 485 nm and emission at 520 nm.
Either GraphPad prism or XLfit was used to analyze the data. The IC50 values were derived by fitting the data to a four parameter logistic equation producing a sigmoidal dose-response curve with a variable Hill coefficient. Prism equation: Y=Bottom+(Top−Bottom)/(1+10^((Log lC50−X)*Hill slope)); XLfit equation: Y=(A+((B−A)/(1+((X/C)^D)))) where X is the logarithm of inhibitor concentration and Y is the response.

Chain of KRAS G12D (P01116 1-188 isoform P01116-2 G12D): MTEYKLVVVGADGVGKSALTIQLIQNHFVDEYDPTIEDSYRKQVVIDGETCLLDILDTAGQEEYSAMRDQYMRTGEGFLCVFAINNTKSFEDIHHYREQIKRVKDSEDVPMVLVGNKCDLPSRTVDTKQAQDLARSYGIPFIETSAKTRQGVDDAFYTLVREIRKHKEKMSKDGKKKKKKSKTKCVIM

Row | Structure (SMILES) | IC50 [nM]
1 | Cc1nc2c(N3CC(N(C)C)C3)nc3c(F)c(-c4cc(O)cc5ccccc45)c(Cl)cc3c2n1[C@H]1[C@H]2CN[C@@H]1C2 [Example 15, 4-(1-((endo)-2-azabicyclo[2.1.1]hexan-5-yl)-8-chloro-4-(3-(dimethylamino)-azetidin-1-yl)-6-fluoro-2-methyl-1H-imidazo[4,5-c]quinolin-7-yl)naphthalen-2-ol] | 1000 to 5000
2 | Cc1ccc2cc(O)cc(-c3c(Cl)cc4c(nc(N5CC(N(C)C)C5)c5ncn([C@H]6[C@H]7CN[C@@H]6C7)c54)c3F)c2c1 [Example 24, 4-(1-((endo)-2-azabicyclo[2.1.1]hexan-5-yl)-8-chloro-4-(3-(dimethylamino)-azetidin-1-yl)-6-fluoro-1H-imidazo[4,5-c]quinolin-7-yl)-6-methylnaphthalen-2-ol] | 1000 to 5000
3 | CN(C)C1CN(c2nc3c(F)c(-c4cc(O)cc5ccccc45)c(Cl)cc3c3c2nc(CCN)n3[C@H]2[C@H]3CN[C@@H]2C3)C1 [Example 76, 4-(2-(2-aminoethyl)-1-((endo)-2-azabicyclo[2.1.1]hexan-5-yl)-8-chloro-4-(3-(dimethylamino)azetidin-1-yl)-6-fluoro-1H-imidazo[4,5-c]quinolin-7-yl)naphthalen-2-ol] | 100 to 1000
4 | CN(C)C1CN(c2nc3c(F)c(-c4cc(O)cc5ccccc45)c(Cl)cc3c3c2nc(-c2cn(C)cn2)n3[C@H]2[C@H]3CN[C@@H]2C3)C1 [Example 78, 4-(1-((endo)-2-azabicyclo[2.1.1]hexan-5-yl)-8-chloro-4-(3-(dimethylamino)-azetidin-1-yl)-6-fluoro-2-(1-methyl-1H-imidazol-4-yl)-1H-imidazo[4,5-c]quinolin-7-yl)naphthalen-2-ol] | 100 to 1000
5 | CN(C)C(=O)CCc1nc2c(N3CC(N(C)C)C3)nc3c(Oc4ccccc4)c(-c4cc(O)cc5ccccc45)c(CCC#N)cc3c2n1C1C2CNC1C2 (stereo not drawn) [Example 293, 3-(1-((endo)-2-azabicyclo[2.1.1]hexan-5-yl)-8-(2-cyanoethyl)-4-(3-(dimethylamino)azetidin-1-yl)-7-(3-hydroxynaphthalen-1-yl)-6-phenoxy-1H-imidazo[4,5-c]quinolin-2-yl)-N,N-dimethylpropanamide] | 100 to 1000
6 | CNC(=O)c1cc(-c2nc3c(F)c(-c4cc(O)cc5ccccc45)c(CCC#N)cc3c3c2nc(CCC(=O)N(C)C)n3C2C3CNC2C3)ccc1F (stereo not drawn) [Example 297, 5-(1-((endo)-2-azabicyclo[2.1.1]hexan-5-yl)-8-(2-cyanoethyl)-2-(3-(dimethylamino)-3-oxopropyl)-6-fluoro-7-(3-hydroxynaphthalen-1-yl)-1H-imidazo[4,5-c]quinolin-4-yl)-2-fluoro-N-methylbenzamide] | ≤ 100

Other lines, results leading:

Row | IC50 [nM] | Structure (SMILES)
7 | ≤ 100 | CN(C)C1CN(c2nc3c(F)c(-c4cc(O)cc5ccccc45)c(CCC#N)cc3c3c2nc(CN2CCOCC2=O)n3C2C3CNC2C3)C1 (single isomer, unassigned) [Example 300a, 3-(1-((endo)-2-azabicyclo[2.1.1]hexan-5-yl)-4-(3-(dimethylamino)azetidin-1-yl)-6-fluoro-7-(3-hydroxynaphthalen-1-yl)-2-((3-oxomorpholino)methyl)-1H-imidazo[4,5-c]quinolin-8-yl)propanenitrile]
8 | ≤ 100 | CN(C)C1CN(c2nc3c(F)c(-c4cc(O)cc5ccccc45)c(CCC#N)cc3c3c2nc(-c2csc(N4CCNCC4)n2)n3C2C3CNC2C3)C1 (single isomer, unassigned) [Example 302a, 3-(1-((endo)-2-azabicyclo[2.1.1]hexan-5-yl)-4-(3-(dimethylamino)azetidin-1-yl)-6-fluoro-7-(3-hydroxynaphthalen-1-yl)-2-(2-(piperazin-1-yl)thiazol-4-yl)-1H-imidazo[4,5-c]quinolin-8-yl)propanenitrile]
